These results are taken from US7452894B2, “Purine derivatives as purinergic receptor antagonists” (Vernalis Research Limited, priority 2001, dated 2008).

Consider `Nc1nc(-c2ccco2)c2ncn(CC(=O)NCCO)c2n1` [Example 96, 2-Amino-6-(2-furyl)-N-(2-hydroxyethyl)-9H-purine-9-acetamide], for which the melting point was > 250 °C (dec.).

Take `Nc1nc(-c2cc3ccccc3o2)c2nc[nH]c2n1` [Example 120, 6-(Benzofuran-2-yl)-1H-purine-2-amine]: the melting point was in the range of 310 to 310.3 °C.

In turn, `Cc1noc(C)c1S(=O)(=O)Nc1ccccc1Cn1cnc2c(-c3ccco3)nc(N)nc21` [Example 239, 6-(2-Furyl)-9-(2-(3,5-dimethylisoxazol-4-ylsulphonylamino)benzyl)-9H-purine-2-amine] showed a melting point of 251.4 to 253.1 °C.

For the molecule `CCNC(=O)n1cnc2c(-c3ccco3)nc(N)nc21` [Example 24, 2-Amino-N-ethyl-6-(2-furyl)-9H-purine-9-carboxamide], the melting point is > 280 °C (dec.).

Regarding `Nc1nc(-c2ccco2)c2ncn(C(=O)NC3CCCCC3)c2n1` [Example 19, 2-Amino-N-cyclohexyl-6-(2-furyl)-9H-purine-9-carboxamide], the melting point was in the range of 177.6 to 178.2 °C.

For the molecule `Nc1nc(-c2cc3ccccc3o2)c2ncn(C(=O)NCc3ccccc3)c2n1` [Example 128, 2-Amino-6-(benzofuran-2-yl)-N-benzyl-9H-purine-9-carboxamide], the melting point was > 250 °C (dec.).

Molecule `Cc1noc(C)c1Cn1cnc2c(-c3ccco3)nc(N)nc21` [Example 229, 9-(3,5-Dimethylisoxazol-4-ylmethyl)-6-(2-furyl)-9H-purine-2-amine] gave a melting point of 282.4 to 282.6 °C.

`N#Cc1cccc(Cn2cnc3c(-c4ccco4)nc(N)nc32)c1` [Example 177, 9-(3-Cyanobenzyl)-6-(2-furyl)-9H-purine-2-amine] registered a melting point of 302.5 to 304.8 °C.

Turning to `C=CCNc1nc(-c2ccco2)c2ncn(COCC[Si](C)(C)C)c2n1`, the melting point lay in the range of 185.5 to 186 °C.

`CSc1nc(-c2ccco2)c2ncn(C(=O)OC(C)(C)C)c2n1` [Example 12, tert-Butyl 6-(2-furyl)-2-methylthio-9H-purine-9carboxylate] gave a melting point of 112 to 113 °C.

Take `Cc1ccc(-c2nc(N)nc3[nH]cnc23)nc1` [Example 241, 6-(5-Methyl-2-pyridinyl)-1H-purine-2-amine]: the melting point fell in the range of 246.2 to 248 °C.

The molecule `Nc1nc(-c2cncs2)c2ncn(Cc3ccccc3F)c2n1` [Example 267, 9-(2-Fluorobenzyl)-6-(thiazol-5-yl)-9H-purine-2-amine] came in with a melting point of 190.5 to 190.6 °C.

Consider `Nc1nc(-c2ccco2)c2ncn(Cc3cccc(C(=O)NCc4ccccc4)c3)c2n1` [Example 226, 3-(2-Amino-6-(2-furyl)-9H-purine-9-ylmethyl)-N-benzylbenzamide], for which the melting point lay within 243.2 to 243.8 °C.

`Cc1ccccc1NC(=O)Cn1cnc2c(-c3ccco3)nc(N)nc21` [Example 140, 2-Amino-6-(2-furyl)-N-(2-methylphenyl)-9H-purine-9-acetamide] came in with a melting point of 299.2 to 299.3 °C.

Regarding `COC(=O)c1ccc(Cn2cnc3c(-c4ccco4)nc(N)nc32)cc1` [Example 215, Methyl 4-(2-amino-6-(2-furyl)-9H-purine-9-ylmethyl)benzoate], the melting point lay in the range of 219.5 to 219.7 °C.

`Nc1nc(-c2ccco2)c2ncn(Cc3ccc(C(=O)NCc4ccccc4)cc3)c2n1` [Example 227, 4-(2-Amino-6-(2-furyl)-9H-purine-9-ylmethyl)-N-benzylbenzamide] gave a melting point of 170 to 171.9 °C.

Turning to `CNc1nc(-c2ccco2)c2nc[nH]c2n1` [Example 18, 6-(2-Furyl)-N-methyl-1H-purine-2-amine], the melting point was 235 to 236 °C (dec.).

On to `Cn1cccc1-c1nc(N)nc2c1ncn2C(=O)NCc1ccccc1` [Example 134, 2-Amino-N-benzyl-6-(1-methyl-1H-pyrrol-2-yl)-9H-purine-9-carboxamide], for which the melting point is > 230 °C (dec.).

In turn, `Nc1nc(-c2ccco2)c2ncn(Cc3cccc(F)c3)c2n1` [Example 203, 9-(3-Fluorobenzyl)-6-(2-furyl)-9H-purine-2-amine] showed a melting point of 218.2 to 218.5 °C.

Regarding `C[Si](C)(C)CCOCn1cnc2c(-c3ccco3)nc(Cl)nc21`, the melting point lay in the range of 105.8 to 106.2 °C.

As to `O=C(NC1CCCCC1)n1cnc2c(-c3ccco3)nc(Cl)nc21` [Example 31, 2-Chloro-N-cyclohexyl-6-(2-furyl)-9H-purine-9-carboxamide], the melting point is 177.4 to 177.8 °C.

Turning to `Nc1nc(-c2ccco2)c2ncn(CC(=O)Nc3cccnc3)c2n1` [Example 143, 2-Amino-6-(2-furyl)-N-(3-pyridyl)-9H-purine-9-acetamide], the melting point is 285.6 to 286.4 °C.

`NC(=O)Cn1cnc2c(-c3ccco3)nc(N)nc21` [Example 87, 2-Amino-6-(2-furyl)-9H-purine-9-acetamide] showed a melting point of 321.5 to 321.6 °C.

`Nc1nc(-c2ccco2)c2ncn(Cc3ccccc3[N+](=O)[O-])c2n1` [Example 197, 6-(2-Furyl)-9-(2-nitrobenzyl)-9H-purine-2-amine]: the melting point was in the range of 290.6 to 290.7 °C.

Take `CC(C)CC(=O)n1cnc2c(-c3ccco3)nc(N)nc21` [Example 33, 6-(2-Furyl)-9-(3-methylbutyryl)-9H-purine-2-amine]: the melting point is 175.4 to 176.1 °C.

Consider `C=CCNc1nc(-c2ccco2)c2nc[nH]c2n1` [Example 17, N-Allyl-6-(2-furyl)-1H-purine-2-amine], for which the melting point is 158.7 to 160.1 °C.

`OC[C@H]1CCCN1c1nc(-c2ccco2)c2nc[nH]c2n1` [Example 9, (2R)-1-(6-(2-Furyl)-1H-purine-2-yl)-2-pyrrolidinemethanol] gave a melting point of 130.9 to 131.5 °C.

Consider `Nc1nc(-c2ccco2)c2ncn(CC(=O)NCc3ccccn3)c2n1` [Example 119, 2-Amino-6-(2-furyl)-N-(2-pyridylmethyl)-9H-purine-9-acetamide], for which the melting point was in the range of 238.3 to 238.4 °C.

As for `Nc1nc(-c2ccc(Cl)s2)c2ncn(C(=O)NCc3ccccc3)c2n1` [Example 130, 2-Amino-N-benzyl-6-(5-chloro-2-thienyl)-9H-purine-9-carboxamide], the melting point was 194 to 195 °C (dec.).

As for `Nc1nc(-c2ccco2)c2ncn(C(=O)N3CCCC3)c2n1` [Example 29, 6-(2-Furyl)-9-(1-pyrrolidinylcarbonyl)-9H-purine-2-amine], the melting point is > 300 °C (dec.).

In turn, `Nc1nc(-c2ccco2)c2ncn(CC(=O)Nc3ccncc3)c2n1` [Example 142, 2-Amino-6-(2-furyl)-N-(4-pyridyl)-9H-purine-9-acetamide] yielded a melting point of 281.3 to 283.2 °C.

Regarding `Nc1nc(-c2ccco2)c2ncn(Cc3ccccc3NS(=O)(=O)c3cccs3)c2n1` [Example 238, 6-(2-Furyl)-9-(2-(2-thienylsulphonylamino)benzyl)-9H-purine-2-amine], the melting point lay within 265.6 to 266 °C.

As for `Nc1nc(-c2ccco2)c2ncn(CC(=O)NCc3ccco3)c2n1` [Example 218, 2-Amino-6-(2-furyl)-N-(2-furylmethyl)-9H-purine-9-acetamide], the melting point fell in the range of 276.4 to 276.9 °C.

`CCCNC(=O)Cn1cnc2c(-c3ccco3)nc(N)nc21` [Example 124, 2-Amino-6-(2-furyl)-N-n-propyl-9H-purine-9-acetamide] showed a melting point of 258.7 to 260.1 °C.

Broadly, the melting point is the temperature, or range, at which the solid turns liquid.
